Data: ChEMBL document CHEMBL1157711, “Recent advances in the discovery of competitive protein tyrosine phosphatase 1B inhibitors for the treatment of diabetes, obesity, and cancer” (J Med Chem, 2010)
Blank lines part the entries; values can stand above or below the compound they belong to.

What was measured:
[1] = target: T1, Tyrosine-protein phosphatase non-receptor type 2 (Homo sapiens, UniProt P17706); experiment: Inhibition of TCPTP
T1 sequence (P17706 whole entry): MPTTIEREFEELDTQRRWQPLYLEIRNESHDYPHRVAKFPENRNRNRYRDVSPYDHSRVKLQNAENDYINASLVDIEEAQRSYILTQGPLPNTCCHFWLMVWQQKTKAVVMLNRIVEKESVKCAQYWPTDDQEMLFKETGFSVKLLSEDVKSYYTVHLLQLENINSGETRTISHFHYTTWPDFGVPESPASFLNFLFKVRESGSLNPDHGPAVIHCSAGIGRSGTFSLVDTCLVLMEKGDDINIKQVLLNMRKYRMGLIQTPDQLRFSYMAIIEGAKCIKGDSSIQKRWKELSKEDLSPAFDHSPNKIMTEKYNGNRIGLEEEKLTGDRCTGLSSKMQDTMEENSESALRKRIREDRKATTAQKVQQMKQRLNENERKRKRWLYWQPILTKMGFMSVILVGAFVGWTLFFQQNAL

[2] = target: T2, Tyrosine-protein phosphatase non-receptor type 1 (Homo sapiens, UniProt P18031); experiment: Inhibition of PTP1B
T2 sequence (P18031 whole entry): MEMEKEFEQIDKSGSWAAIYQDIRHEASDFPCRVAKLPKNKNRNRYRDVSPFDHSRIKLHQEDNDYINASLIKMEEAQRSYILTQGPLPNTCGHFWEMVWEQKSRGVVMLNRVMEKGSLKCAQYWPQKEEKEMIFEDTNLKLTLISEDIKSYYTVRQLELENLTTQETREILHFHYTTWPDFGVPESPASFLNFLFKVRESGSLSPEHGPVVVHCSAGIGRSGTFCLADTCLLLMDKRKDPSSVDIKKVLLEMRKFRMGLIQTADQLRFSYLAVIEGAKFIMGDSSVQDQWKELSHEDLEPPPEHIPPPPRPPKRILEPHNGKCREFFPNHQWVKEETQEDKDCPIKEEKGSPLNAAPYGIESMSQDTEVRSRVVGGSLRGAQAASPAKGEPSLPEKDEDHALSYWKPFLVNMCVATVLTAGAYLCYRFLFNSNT

[3] = Permeability across human Caco-2 cell membrane; assay type: ADME, cell-based; conditions: read-out: permeability
[4] = Selectivity ratio of Ki for TCPTP to Ki for PTP1B
[5] = Selectivity ratio of IC50 for TCPTP to IC50 for PTP1B
[6] = system: C2C12; experiment: Augmentation of insulin-stimulated 2-deoxy-D-glucose uptake in mouse C2C12 cells at 100 uM; assay type: functional
[7] = target: Receptor-type tyrosine-protein phosphatase beta (Homo sapiens, UniProt P23467); experiment: Inhibition of human protein-tyrosine phosphatase beta
Chain of Receptor-type tyrosine-protein phosphatase beta (P23467 whole entry): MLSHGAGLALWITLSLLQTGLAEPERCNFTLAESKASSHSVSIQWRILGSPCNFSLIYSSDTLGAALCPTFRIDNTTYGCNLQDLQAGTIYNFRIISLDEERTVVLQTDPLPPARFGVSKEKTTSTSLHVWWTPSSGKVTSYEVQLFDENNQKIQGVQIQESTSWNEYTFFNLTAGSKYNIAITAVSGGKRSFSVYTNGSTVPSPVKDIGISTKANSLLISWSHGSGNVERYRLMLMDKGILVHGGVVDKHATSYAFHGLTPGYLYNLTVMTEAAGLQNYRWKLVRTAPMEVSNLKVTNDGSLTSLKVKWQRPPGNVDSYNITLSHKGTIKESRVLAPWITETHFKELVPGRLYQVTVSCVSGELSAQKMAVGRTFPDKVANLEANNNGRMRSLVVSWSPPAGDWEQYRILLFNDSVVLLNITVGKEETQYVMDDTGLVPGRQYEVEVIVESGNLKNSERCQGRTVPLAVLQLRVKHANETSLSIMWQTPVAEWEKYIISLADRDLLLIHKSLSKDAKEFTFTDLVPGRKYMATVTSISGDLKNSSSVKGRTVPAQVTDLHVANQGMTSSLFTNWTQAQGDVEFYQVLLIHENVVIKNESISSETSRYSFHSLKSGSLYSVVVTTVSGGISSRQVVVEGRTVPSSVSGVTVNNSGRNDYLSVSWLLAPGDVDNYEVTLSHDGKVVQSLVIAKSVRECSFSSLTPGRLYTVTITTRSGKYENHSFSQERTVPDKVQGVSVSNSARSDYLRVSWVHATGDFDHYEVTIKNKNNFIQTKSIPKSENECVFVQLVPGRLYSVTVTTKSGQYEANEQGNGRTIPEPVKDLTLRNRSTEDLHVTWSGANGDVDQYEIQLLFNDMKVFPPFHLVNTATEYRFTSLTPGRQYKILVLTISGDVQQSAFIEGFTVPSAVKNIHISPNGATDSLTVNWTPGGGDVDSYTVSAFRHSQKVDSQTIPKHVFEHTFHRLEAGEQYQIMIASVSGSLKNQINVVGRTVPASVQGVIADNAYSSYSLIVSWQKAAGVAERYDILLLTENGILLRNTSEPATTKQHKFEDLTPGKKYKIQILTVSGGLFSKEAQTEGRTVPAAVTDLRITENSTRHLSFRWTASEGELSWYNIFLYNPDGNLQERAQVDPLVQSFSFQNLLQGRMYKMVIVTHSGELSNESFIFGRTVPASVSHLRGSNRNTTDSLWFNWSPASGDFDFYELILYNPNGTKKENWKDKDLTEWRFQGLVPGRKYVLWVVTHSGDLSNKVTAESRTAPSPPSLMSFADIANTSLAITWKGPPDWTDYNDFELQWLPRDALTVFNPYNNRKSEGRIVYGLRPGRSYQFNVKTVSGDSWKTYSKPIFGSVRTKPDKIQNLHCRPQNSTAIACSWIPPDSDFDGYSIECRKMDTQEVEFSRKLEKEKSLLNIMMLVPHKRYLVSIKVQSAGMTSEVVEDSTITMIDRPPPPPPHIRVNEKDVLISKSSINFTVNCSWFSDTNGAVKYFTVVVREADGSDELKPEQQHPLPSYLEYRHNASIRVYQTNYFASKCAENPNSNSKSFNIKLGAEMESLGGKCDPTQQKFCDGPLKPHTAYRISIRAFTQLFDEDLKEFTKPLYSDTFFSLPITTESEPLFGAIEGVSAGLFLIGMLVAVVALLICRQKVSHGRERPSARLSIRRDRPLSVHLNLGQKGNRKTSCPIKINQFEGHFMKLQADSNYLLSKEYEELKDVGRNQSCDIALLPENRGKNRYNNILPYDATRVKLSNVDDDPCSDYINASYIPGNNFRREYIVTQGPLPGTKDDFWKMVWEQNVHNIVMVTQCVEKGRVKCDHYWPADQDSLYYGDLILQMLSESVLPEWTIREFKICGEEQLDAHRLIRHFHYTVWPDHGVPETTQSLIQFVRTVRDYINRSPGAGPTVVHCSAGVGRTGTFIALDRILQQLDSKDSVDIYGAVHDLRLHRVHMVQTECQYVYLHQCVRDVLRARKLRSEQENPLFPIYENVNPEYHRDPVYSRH

[8] = target: T2, Tyrosine-protein phosphatase non-receptor type 1; experiment: Inhibition of PTP1B by competitive inhibition assay

IC50 [1]: 150 nM
Structure (SMILES): Cc1cc(C[C@H](NS(=O)(=O)c2ccccc2)c2nc3ccccc3[nH]2)ccc1N1CC(=O)NS1(=O)=O

Ki [2]: 4300 nM
Structure (SMILES): Cc1sc(-c2cccc(NC3CCN(S(=O)(=O)Cc4ccccc4)CC3)c2)cc1C1CC(=O)NS1(=O)=O (centres undefined)

IC50 [1]: 28 nM
Ratio IC50 [5]: 1
Structure (SMILES): CN(C)S(=O)(=O)c1ccc(CN(Cc2ccc(C(F)(F)P(=O)(O)O)c(Br)c2)S(=O)(=O)c2ccc(OCC(=O)O)cc2)cc1

IC50 [2]: 600 nM
Structure (SMILES): Cc1ccccc1S(=O)(=O)N(Cc1ccc(C(=O)C(F)(F)P(=O)(O)O)cc1)Cc1ccc(C(=O)C(F)(F)P(=O)(O)O)cc1

IC50 [1]: 25 nM
Structure (SMILES): Cc1cc(C[C@H](NS(=O)(=O)c2ccccc2)c2nc3ccccc3[nH]2)ccc1[C@@H]1CC(=O)NS1(=O)=O

IC50 [1]: 250 nM
Structure (SMILES): O=C1C[C@@H](c2ccc(C[C@H](Nc3nc4ccccc4s3)c3nc4ccccc4[nH]3)cc2F)S(=O)(=O)N1

IC50 [1]: 25 nM
IC50 [2]: 23 nM
Ratio IC50 [5]: 1
Structure (SMILES): Cc1cc(CC(NS(=O)(=O)c2cccc(F)c2)C2=N[C@H](CCOc3ccccc3S(C)(=O)=O)CN2)ccc1C1CC(=O)NS1(=O)=O (some centres undefined)

Ki [1]: 65 nM
Structure (SMILES): CCc1cc(C[C@H](NC(C)=O)C(=O)NCCCCOc2cccc(O)c2C(=O)OC)ccc1N(C(=O)C(=O)O)c1ccccc1C(=O)O

Further lines, the compound ahead of its results:

Structure (SMILES): O=S(=O)(Nc1ccc(Oc2ccc(Oc3ccc(NS(=O)(=O)C(F)(F)F)cc3)cc2)cc1)C(F)(F)F
IC50 [2]: 2500 nM

Structure (SMILES): COC(=O)c1c(O)cccc1OCCCCNC(=O)[C@H](Cc1ccc(OCC(=O)O)c(O)c1)NC(C)=O
Papp [3]: > 10 ×10⁻⁶ cm/s
Ratio Ki [4]: 20

Structure (SMILES): CNC(=O)[C@@H]1Cc2ccc(NS(=O)(=O)O)cc2CN1C(=O)CCc1cccc(NS(=O)(=O)O)c1
Ratio IC50 [5]: 1.9

Structure (SMILES): NC(=O)[C@H](Cc1ccc(C(F)(F)P(=O)(O)O)cc1)NC(=O)[C@H](CC(=O)O)NC(=O)Cc1ccc(C(F)(F)P(=O)(O)O)cc1
Ki [1]: 26 nM

Structure (SMILES): N#Cc1ccc2cc(Br)c(C(F)(F)P(=O)(O)O)cc2c1
IC50 [1]: 120 nM

Structure (SMILES): CS(=O)(=O)OC1C(Cl)CCCC1Cc1ccc(N2CC(=O)CS2(=O)=O)c(O)c1 (centres undefined)
IC50 [2]: 12.6 nM

Structure (SMILES): COC(=O)c1c(O)cccc1OC/C=C/c1cccc(-c2onc(C(=O)O)c2N)c1
IC50 [1]: > 30000 nM

Structure (SMILES): O=C1CN(c2c(O)cc(CC3CCCCC3)cc2F)S(=O)(=O)C1
IC50 [2]: 14 nM

Structure (SMILES): O=C(O)C(=O)Nc1sc2c(c1C(=O)O)CCN[C@H]2CNC(=O)c1cc2cc(F)ccc2[nH]1
Activity [6]: 70%
Papp [3]: < 1 ×10⁻⁶ cm/s

Structure (SMILES): CCc1csc([C@H](Cc2ccc(NS(=O)(=O)O)cc2)NC(=O)[C@H](CC(C)C)C(=O)OC)n1
IC50 [7]: 0.3 nM
IC50 [2]: 70 nM

Structure (SMILES): O=S(=O)(O)C(F)(F)c1cccc(-c2ccc(-c3ccccc3)cc2)c1
IC50 [2]: 8000 nM

Structure (SMILES): CN(CCCCCl)P(=O)(OCc1ccc([N+](=O)[O-])o1)C(F)(F)c1ccc(CC(=O)N[C@@H](CC(=O)O)C(=O)N[C@@H](Cc2ccc(C(F)(F)P(=O)(OCc3ccc([N+](=O)[O-])o3)N(C)CCCCCl)cc2)C(=O)ON)cc1 (some centres undefined)
IC50 [2]: > 20000 nM

Structure (SMILES): CCC(CC)c1ccc(N(Cc2cccc(-c3ccc(COc4ccc(C[C@H](NC(C)=O)C(=O)O)cc4)cc3)c2)C(C)C)cc1
IC50 [2]: 16 nM

Structure (SMILES): Cc1nc(-c2ccc(Cl)cc2)sc1CCc1cccc(C(O)(C(=O)O)C(F)(F)F)c1 (centres undefined)
IC50 [2]: 3200 nM

Structure (SMILES): COc1cc(/C=C2\SC(=S)N(c3cccc(Cl)c3)C2=O)cc([N+](=O)[O-])c1O
Ratio IC50 [5]: 1.3
Ki [8]: 1800 nM

Structure (SMILES): COC(=O)c1c(O)cccc1OCCCCNC(=O)[C@H](Cc1ccc(OC(C(=O)O)C(=O)NC2CC2)cc1)NC(=O)OC(C)(C)C (some centres undefined)
Ki [1]: > 200000 nM
Ki [2]: 8400 nM
Ratio Ki [4]: > 23

Structure (SMILES): COc1ccc2cc(O)c(N3CC(=O)NS3(=O)=O)cc2c1
IC50 [2]: < 30 nM
